Earlier results as cited in patent publication US9961901B2, “Mectin and milbemycin nanoparticle formulations” (priority 2013, dated 2018).
Read-outs that look alike come from different tables or passages of the source.

Assays:
[1] = 20° C.
[2] = not given; remark: listed apart in the source

Row | Molecule | Solubility, Acetone ([1]; acetone) | Solubility, Ethyl Acetate ([1]; ethyl acetate) | Solubility, Water [1] | Octanol-Water Coefficient Log P | Aqueous Photolysis DT50 ([2]; pH 7) | Solubility, Methanol [1] | Solubility, n-heptane ([1]; n-heptane) | Aqueous Photolysis DT50 ([2]; pH 5)
1 | CC[C@H](C)[C@H]1O[C@]2(C=C[C@@H]1C)C[C@@H]1C[C@@H](C/C=C(\C)[C@@H](O[C@H]3C[C@H](OC)[C@@H](O[C@H]4C[C@H](OC)[C@@H](O)[C@H](C)O4)[C@H](C)O3)[C@@H](C)/C=C/C=C3\CO[C@@H]4[C@H](O)C(C)=C[C@@H](C(=O)O1)[C@]34O)O2 [abamectin] | Acetone: 72,000 mg/L | Ethyl Acetate: 160,000 mg/L | Water: 1.21 mg/L | Log P: 4.4 | DT50: 1.5 d at pH 7 |  |  | 
2 | emamectin |  |  | Water: 24 mg/L | Log P: 5.0 | DT50: 32 d at pH 7 | Methanol: 2700 g/L |  | 
3 | milbemycin |  |  | Water 3.6 mg/L | Log P: 6.8 |  | Methanol: 251,000 mg/L | n-heptane: 5,060 mg/L | DT50: 3 d at pH 5 (aqueous
